{
  "source": "patent US20130065820A1",
  "about": "“SYNTHETIC MYOSTATIN PEPTIDE ANTAGONISTS” (COVITA LIMITED, priority 2009, published 2013)",
  "key": {"myoblasts": {"test_system": "myoblasts", "test": "Myoblast proliferation / biological activity of synthetic peptides with other cysteine connectivities (results not shown)", "assay_type": "cell-based", "conditions": "synthetic peptides of stated connectivity or truncation", "description": "(§1) Bovine C2C12 myoblasts were grown in Dulbecco's modified eagle medium according to the standard techniques (Thomas et al, 2000). The myoblast proliferation assay was carried out in uncoated 96-well microtitre plates. C2C12 cultures were seeded at 1000 cells/well. Following a 16-hour attachment period, test media containing varying concentrations of either the synthetic 310 peptide in the 2-3 conformation, the synthetic 310 peptide in the 1-4/2-3 conformation or the positive control (recombinant 310 peptide) were added and cells were incubated for a further 48 or 72 hour period. After the incubation period, proliferation was assessed using methylene blue photometric endpoint assay as previously described (Thomas et al, 2000).\nA number of synthetic peptides were prepared having an amino acid sequence corresponding to amino acids at positions 267-310 and 282-310 of SEQ ID NO:1. Of the 267-310 peptides a number of different connectivities were prepared as follows: • 1. 1-3/2-4 • 2. 1-2/3-4 • 3. 1-2 • 4. 1-3 • 5. 1-4 • 6. 1-2, 3-4/1-3, 2-4 • 7. 2-4 • 8. 3-4 • 9. 1-4/2-3 • 10. Linear (no forced connectivity)\nThe peptides were synthesized as described above in example 1. Different cysteine residues were protected and deprotected to produce the specified connectivities and would be understood by a skilled worker."}, "C2C12 myoblasts [1]": {"test_system": "C2C12 myoblasts", "test": "Myoblast proliferation assay (methylene blue photometric endpoint)", "assay_type": "cell-based, Mouse", "conditions": "for % proliferation above control: control (media + buffer) = 100%; for myoblast proliferation / biological activity (in words): 48 or 72 hours, compared to control (media and buffer only)", "description": "A synthetic peptide of the invention, or a functional variant or fragment thereof has the biological function of antagonising myostatin activity. To determine whether a synthetic peptide of the invention, or functional variant or fragment thereof, is able to antagonise myostatin activity, such activity can be tested by growing myoblasts in the presence or absence (control) of a candidate synthetic peptide of the invention. […] A suitable cell line could be murine C2Cl2 myoblasts (ATCC NO: CRL-1772), however, it will be appreciated that any suitable myoblast cell line could be used, such as primary ovine, bovine, porcine or human myoblasts.\nas §1, with “The” for “Bovine C2C12 myoblasts were grown in Dulbecco's modified eagle medium according to the standard techniques (Thomas et al, 2000). The”"}, "C2C12 myoblasts [2]": {"test_system": "C2C12 myoblasts", "test": "Nuclei count per well by DAPI staining of the myoblast proliferation plates", "assay_type": "cell-based, Bovine", "description": "as §1\nTo confirm that the increased proliferation observed in example 1 was not simply false positive results, the plates were used to count nuclei.\nCells in the wells of interest were stained with DAPI (4′-6-diamidino-2-phenylindole) which is a fluorescent dye that stains nuclei blue. DAPI was used at a concentration of […] in PBS and cells stained for 5 mins at room temperature, then washed once with PBS buffer. Images of each well were then captured via a Leica DMI 6000 microscope and an image analysis program (Image-Pro plus) utilised to count the nuclei. For each treatment (recombinant 310 positive control, and synthetic peptides (2-3) and (1-4/2-3) at 10 and 20 µg/ml), 3-6 wells per treatment were analysed."}, "myostatin": {"test_system": "myostatin", "conditions": "recombinant peptide, WO 2008/016314; cited from earlier work"}},
  "note": "Where “and” joins values, the source holds several entries; their conditions need not be identical. Identical values can stand only once. Bridge positions count the residues as written; N and C are the ends. Ends that are not written are not given here.",
  "data": [
    {"substance": "linear 310 synthetic peptide: Synthetic 267-310 myostatin peptide, linear, no forced connectivity (DFGLDCDEHSTESRCCRYPLTVDFEAFGWDWIIAPKRYKANYCS; Growth/differentiation factor 8 linear; UniProt O18836 267-310, looked up, fragment)", "values": [
      {"measurement": "biological activity / enhanced myoblast proliferation (in words)", "setting": "myoblasts", "result": "showed enhanced myoblast proliferation"}
    ]},
    {"substance": "310 synthetic peptide that was N-terminally truncated at amino acid position 282: Synthetic peptide of amino acids 282-310 of SEQ ID NO:1, only cysteines 3 and 4 (CRYPLTVDFEAFGWDWIIAPKRYKANYCS; only cysteines 3 and 4; listed as Homo sapiens)", "values": [
      {"measurement": "biological activity / enhanced myoblast proliferation (in words)", "setting": "myoblasts", "result": "not active"}
    ]},
    {"substance": "Synthetic 310 (2-3/1-4 connectivity): Synthetic peptide of amino acids 267-310 of bovine myostatin (SEQ ID NO:4) with forced 2-3/1-4 disulfide connectivity (DFGLDCDEHSTESRCCRYPLTVDFEAFGWDWIIAPKRYKANYCS; disulfide 15-16, 6-43)", "values": [
      {"measurement": "% proliferation above control", "setting": "C2C12 myoblasts [1]; 0.1 μg, 48 h", "result": 100.17, "unit": "%"},
      {"measurement": "% proliferation above control", "setting": "C2C12 myoblasts [1]; 0.1 μg, 72 h", "result": 100.54, "unit": "%"},
      {"measurement": "% proliferation above control", "setting": "C2C12 myoblasts [1]; 1.0 μg, 48 h", "result": 100.07, "unit": "%"},
      {"measurement": "% proliferation above control", "setting": "C2C12 myoblasts [1]; 1.0 μg, 72 h", "result": 102.60, "unit": "%"},
      {"measurement": "% proliferation above control", "setting": "C2C12 myoblasts [1]; 10 μg, 48 h", "result": 108.58, "unit": "%"},
      {"measurement": "% proliferation above control", "setting": "C2C12 myoblasts [1]; 10 μg, 72 h", "result": 107.51, "unit": "%"},
      {"measurement": "% proliferation above control", "setting": "C2C12 myoblasts [1]; 20.0 μg, 48 h", "result": 106.87, "unit": "%"},
      {"measurement": "% proliferation above control", "setting": "C2C12 myoblasts [1]; 20.0 μg, 72 h", "result": 110.47, "unit": "%"},
      {"measurement": "myoblast proliferation / biological activity (in words)", "setting": "C2C12 myoblasts [1]", "result": "slightly more biological activity"},
      {"measurement": "Number of nuclei per well", "setting": "C2C12 myoblasts [2]; 10 μg, 48 h", "result": 810.2},
      {"measurement": "Number of nuclei per well", "setting": "C2C12 myoblasts [2]; 10 μg, 72 h", "result": 2328.2},
      {"measurement": "Number of nuclei per well", "setting": "C2C12 myoblasts [2]; 20.0 μg, 48 h", "result": 739.3},
      {"measurement": "Number of nuclei per well", "setting": "C2C12 myoblasts [2]; 20.0 μg, 72 h", "result": 2172.0},
      {"measurement": "increase in cell numbers (in words)", "setting": "C2C12 myoblasts [2]; 72 h", "result": "significant increases in cell numbers"},
      {"measurement": "biological activity / enhanced myoblast proliferation (in words)", "setting": "myoblasts", "result": "biologically active"}
    ]},
    {"substance": "synthetic peptide having a truncation position at 281: Synthetic mature myostatin peptide C-terminally truncated at position 281 (DFGLDCDEHSTESRC; Growth/differentiation factor 8; UniProt O18836 267-281, looked up, fragment)", "values": [
      {"measurement": "biological activity / enhanced myoblast proliferation (in words)", "setting": "myoblasts", "result": "not biologically active"}
    ]},
    {"substance": "mature recombinant myostatin peptide C-terminally truncated at position 281: Recombinant mature myostatin peptide truncated at 281, two cysteines (1-2 connectivity), from WO 2008/016314 (DFGLDCDEHSTESRC; disulfide 6-15; UniProt O18836 267-281, looked up, fragment)", "values": [
      {"measurement": "biological activity (in words)", "setting": "myostatin", "result": "biologically active"}
    ]},
    {"substance": "1-2: Synthetic 267-310 myostatin peptide with 1-2 cysteine connectivity (DFGLDCDEHSTESRCCRYPLTVDFEAFGWDWIIAPKRYKANYCS; disulfide 6-15; not fully specified (bridges); cysteine pairing not given here; UniProt O18836 267-310, looked up, fragment)", "values": [
      {"measurement": "biological activity / enhanced myoblast proliferation (in words)", "setting": "myoblasts", "result": "not biologically active"}
    ]},
    {"substance": "310 positive control: Recombinant peptide of amino acids 267-310 of bovine myostatin with N terminal and C terminal tags, positive control (DFGLDCDEHSTESRCCRYPLTVDFEAFGWDWIIAPKRYKANYCS; cysteine pairing not given here; also: N- and C-terminal tags; UniProt O18836 267-310, looked up, fragment) [reference compound]", "values": [
      {"measurement": "% proliferation above control", "setting": "C2C12 myoblasts [1]; 10 μg, 48 h", "result": "113.58% and 111.76%"},
      {"measurement": "% proliferation above control", "setting": "C2C12 myoblasts [1]; 10 μg, 72 h", "result": "122.97% and 119.64%"},
      {"measurement": "myoblast proliferation / biological activity (in words)", "setting": "C2C12 myoblasts [1]", "result": "significantly enhanced myoblast proliferation"},
      {"measurement": "Number of nuclei per well", "setting": "C2C12 myoblasts [2]; 10 μg, 48 h", "result": "847.1 and 816.7"},
      {"measurement": "Number of nuclei per well", "setting": "C2C12 myoblasts [2]; 10 μg, 72 h", "result": "2429.3 and 2229.2"}
    ]},
    {"substance": "1-4: Synthetic 267-310 myostatin peptide with 1-4 cysteine connectivity (DFGLDCDEHSTESRCCRYPLTVDFEAFGWDWIIAPKRYKANYCS; disulfide 6-43; not fully specified (bridges); cysteine pairing not given here; UniProt O18836 267-310, looked up, fragment)", "values": [
      {"measurement": "biological activity / enhanced myoblast proliferation (in words)", "setting": "myoblasts", "result": "not biologically active"}
    ]},
    {"substance": "3-4: Synthetic 267-310 myostatin peptide with 3-4 cysteine connectivity (DFGLDCDEHSTESRCCRYPLTVDFEAFGWDWIIAPKRYKANYCS; disulfide 16-43; not fully specified (bridges); cysteine pairing not given here; UniProt O18836 267-310, looked up, fragment)", "values": [
      {"measurement": "biological activity / enhanced myoblast proliferation (in words)", "setting": "myoblasts", "result": "not biologically active"}
    ]},
    {"substance": "2-4: Synthetic 267-310 myostatin peptide with 2-4 cysteine connectivity (DFGLDCDEHSTESRCCRYPLTVDFEAFGWDWIIAPKRYKANYCS; disulfide 15-43; not fully specified (bridges); cysteine pairing not given here; UniProt O18836 267-310, looked up, fragment)", "values": [
      {"measurement": "biological activity / enhanced myoblast proliferation (in words)", "setting": "myoblasts", "result": "not biologically active"}
    ]},
    {"substance": "Synthetic 310 (2-3 connectivity): Synthetic peptide of amino acids 267-310 of bovine myostatin with forced disulfide between cysteines 2 and 3 (281, 282) (DFGLDCDEHSTESRCCRYPLTVDFEAFGWDWIIAPKRYKANYCS; disulfide 15-16; not fully specified (bridges); cysteine pairing not given here; UniProt O18836 267-310, looked up, fragment)", "values": [
      {"measurement": "% proliferation above control", "setting": "C2C12 myoblasts [1]; 0.1 μg, 48 h", "result": 101.66, "unit": "%"},
      {"measurement": "% proliferation above control", "setting": "C2C12 myoblasts [1]; 0.1 μg, 72 h", "result": 101.06, "unit": "%"},
      {"measurement": "% proliferation above control", "setting": "C2C12 myoblasts [1]; 1.0 μg, 48 h", "result": 97.70, "unit": "%"},
      {"measurement": "% proliferation above control", "setting": "C2C12 myoblasts [1]; 1.0 μg, 72 h", "result": 102.00, "unit": "%"},
      {"measurement": "% proliferation above control", "setting": "C2C12 myoblasts [1]; 10 μg, 48 h", "result": 104.18, "unit": "%"},
      {"measurement": "% proliferation above control", "setting": "C2C12 myoblasts [1]; 10 μg, 72 h", "result": 103.83, "unit": "%"},
      {"measurement": "% proliferation above control", "setting": "C2C12 myoblasts [1]; 20.0 μg, 48 h", "result": 105.00, "unit": "%"},
      {"measurement": "% proliferation above control", "setting": "C2C12 myoblasts [1]; 20.0 μg, 72 h", "result": 105.07, "unit": "%"},
      {"measurement": "myoblast proliferation / biological activity (in words)", "setting": "C2C12 myoblasts [1]", "result": "biologically active"},
      {"measurement": "Number of nuclei per well", "setting": "C2C12 myoblasts [2]; 10 μg, 48 h", "result": 810.5},
      {"measurement": "Number of nuclei per well", "setting": "C2C12 myoblasts [2]; 10 μg, 72 h", "result": 1906.1},
      {"measurement": "Number of nuclei per well", "setting": "C2C12 myoblasts [2]; 20.0 μg, 48 h", "result": 808.9},
      {"measurement": "Number of nuclei per well", "setting": "C2C12 myoblasts [2]; 20.0 μg, 72 h", "result": 1903.6},
      {"measurement": "increase in cell numbers (in words)", "setting": "C2C12 myoblasts [2]; 48 h", "result": "significant increases in cell numbers"},
      {"measurement": "increase in cell numbers (in words)", "setting": "C2C12 myoblasts [2]; 72 h", "result": "significant increases in cell numbers"}
    ]},
    {"substance": "1-3: Synthetic 267-310 myostatin peptide with 1-3 cysteine connectivity (DFGLDCDEHSTESRCCRYPLTVDFEAFGWDWIIAPKRYKANYCS; disulfide 6-16; not fully specified (bridges); cysteine pairing not given here; UniProt O18836 267-310, looked up, fragment)", "values": [
      {"measurement": "biological activity / enhanced myoblast proliferation (in words)", "setting": "myoblasts", "result": "not biologically active"}
    ]}
  ]
}
